The source of these data is paper PMC11284600, “Many human pharmaceuticals are weak inhibitors of the cytochrome P450 system in rainbow trout (Oncorhynchus mykiss) liver S9 fractions” (Frontiers in Toxicology, 2024).

By inhibition is commonly meant the percentage by which the read-out fell short of the control. A word on the IC50: it is the concentration that gives 50% inhibition. One may read the fraction unbound as the share of the substance not bound to proteins or other matrix.

Molecules are shown by their SMILES. Counter-ions that a name gives are not always drawn. Like-named read-outs stand apart in the source and are kept apart here.

On the set-up of series [1]: method as in PubChem. The settings on record: (e) empirical; ref PubChem; cited from earlier work.
Series [2] concerns CYP1A-like ethoxyresorufin O-deethylase (EROD) activity. The series can be described thus: in vitro. The settings on record: both, Christophersen, Bornhoeved, rainbow trout (Oncorhynchus mykiss); for inhibition at 10 min: pH 7.8. How it is done: (§1) Commercially available rainbow trout (O. mykiss) liver S9 fractions were used as the enzyme source for the in vitro P450 inhibition assays (RTL-S9, total protein concentration 20 mg/mL, Primacyt Cell Culture Technology GmbH).
(§2) The inhibitory impacts of the test substances toward the rainbow trout liver P450 system in vitro were assessed based on EROD and BFCOD as the marker reactions for CYP1A- and CYP3A-like isoenzyme activities, respectively. […] In this study, the EROD (CYP1A) and BFCOD (CYP3A) activities were determined using 0.5 mg/mL RT-S9 (total protein) concentration and 1 or 2 mM NADPH, respectively. […] All incubations were performed in duplicate in a total volume of 100 µL of potassium phosphate buffer (0.1 M, pH 7.8), at 11°C ± 1°C on a thermostated orbital shaker (LLG Labware). The reactions were terminated by the addition of 37.5 μL of the quenching solution (0.5 M Trizma base/acetonitrile 20:80, v/v). […] The quantitation of the metabolites (resorufin or HFC) was based on linear regression of the respective standards prepared in the potassium phosphate buffer. Negative control incubations were performed separately without the marker substrate, without cofactors, and without RT-S9 to ensure that the detected fluorescence signals arise from the metabolic conversion of the marker substrates (ER or BFC) into their respective metabolites (resorufin or HFC, respectively).
(§3) In this study, the preincubation was performed using three different protocols A-C (Table 2). In the first protocol, the test substance (each separately at six different concentrations between 0.01 and 500 µM) and RT-S9 were preincubated without any cofactors, and the marker reaction was initiated by the addition of the marker substrate (ER or BFC) and NADPH (Protocol A). This enabled the determination of the inhibitory impact of the parent form of the test substance on the respective marker activity. In the second protocol, the test substance and RT-S9 were preincubated together with NADPH, and the marker reaction was initiated by the addition of the marker substrate (Protocol B). In this manner, the test substance could undergo P450 metabolism already during the preincubation step, which may reduce its concentration and thus the inhibitory impact toward the marker reactions, or result in the formation of reactive or inhibitory metabolites, which typically increases the inhibitory impact compared with the parent form (Protocol A). […] In this manner, the test substance could undergo both P450 and phase II metabolism already during the preincubation step, which may likewise reduce its concentration and inhibitory impact toward the marker reactions, and even help eliminate the possible reactive metabolites via glutathione conjugation. […] Additionally, positive control incubations of the marker substrates (ER or BFC) without the test substance (zero inhibitor concentration) were included in each series to determine the basal EROD or BFCOD activity in RT-S9.
(§4) The residual solvent concentration was kept constant at all inhibitor concentrations, including zero, to eliminate its impact on the IC50 concentrations derived from the empirical data. The IC50 shifts for Protocols B and C were calculated according to Eq. 2: IC50 shift=IC50,Protocol A/IC50,Protocol B or Protocol C (2)
(§5) In this manner, the impact of the test substance’s own metabolism (during the preincubation step) on the inhibitory impact could be evaluated.

In series [3] the target is T1, CYP3A-like BFCOD activity (Oncorhynchus mykiss, UniProt O42563).
T1 sequence (O42563 1-518): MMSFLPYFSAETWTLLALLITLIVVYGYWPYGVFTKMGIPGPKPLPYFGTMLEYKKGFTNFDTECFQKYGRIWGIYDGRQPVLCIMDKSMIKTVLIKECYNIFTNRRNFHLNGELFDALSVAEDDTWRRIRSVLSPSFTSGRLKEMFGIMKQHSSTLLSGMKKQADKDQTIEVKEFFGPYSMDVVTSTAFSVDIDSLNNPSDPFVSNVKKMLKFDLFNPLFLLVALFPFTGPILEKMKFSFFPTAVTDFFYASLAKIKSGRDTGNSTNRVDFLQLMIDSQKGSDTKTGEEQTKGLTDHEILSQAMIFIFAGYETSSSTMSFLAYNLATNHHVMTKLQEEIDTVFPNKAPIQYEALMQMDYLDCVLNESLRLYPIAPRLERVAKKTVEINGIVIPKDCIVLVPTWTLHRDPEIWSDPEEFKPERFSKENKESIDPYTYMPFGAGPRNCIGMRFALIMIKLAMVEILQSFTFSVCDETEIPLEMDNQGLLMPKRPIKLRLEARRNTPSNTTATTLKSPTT
The series can be described thus: BFCOD inhibition in RT-S9 (IC50 shift assay). Conditions: both, Christophersen, Bornhoeved, rainbow trout (Oncorhynchus mykiss). How it is done: as §1, §2, §3, §4, §5

Series [4] in a line: Unbound fraction in RT-S9 by rapid equilibrium dialysis. In kind it is in vitro ADME, rainbow trout (Oncorhynchus mykiss). Conditions: 10 µM test substance, 1 mg/mL RT-S9, pH 7.8, 11°C, n = 3, read-out: Unbound fraction (fU,RT-S9). The protocol:
The unbound (free) fractions of the test substances in RT-S9 (fU,RT-S9) were determined using rapid equilibrium dialysis assay (RED, Thermo Fisher Scientific), which exploits two-compartment inserts separated by a dialysis membrane with a molecular weight cut-off of 8,000 Da. In the RED assay, each test pharmaceutical (10 μM) was incubated in triplicate with RT-S9 (1 mg/mL) in 50 mM potassium phosphate buffer (pH 7.8) in a total volume of 300 µL on one side of the membrane (protein-containing chamber), and 350 μL of the plain phosphate buffer on the other side (protein-free chamber). To reach equilibrium, the samples were incubated on an orbital shaker (C25KC Incubator shaker, New Brunswick Scientific, 120 rpm) at 11°C for 4 h. Next, 50 µL aliquots were collected from both chambers separately and diluted by adding 50 µL of the plain buffer (to the protein-containing sample) or 50 μL of 1 mg/mL RT-S9 in the buffer (to the protein-free sample). Finally, the RT-S9 protein was precipitated by the addition of acetonitrile (+200 μL) to both samples separately, followed by incubation on ice for 30 min and centrifugation (16100 g, 15 min). The test substance concentrations in the supernatants of both samples were determined using liquid chromatography. The instrumentation and the analytical methods used for chromatographic analyses are described in detail in the Supplementary Table S2. The unbound fractions of the test substances in RT-S9 (fU,RT-S9) were calculated according to Eq. 3: fU,RT−S9=1− PC−PF/PC (3) where [PC] and [PF] are the test substance concentrations in the samples collected from protein-containing and protein-free chambers, respectively. To account for the test substance’s binding to the RT-S9, the nominal IC50 values were corrected for unbound fraction (fU,RT-S9) according to Eq. 4: Unbound IC50=Nominal IC50×fU,RT−S9 (4)

A further series relates to Human CYP3A. The settings on record: cited from earlier work; for Human CYP3A interactions: substrate status: ref Drugbank unless otherwise stated (Dragovic et al., 2013; Niwa et al., 2005).
Series [5] deals with T2, CYP3A-like 7-benzyloxy-4-trifluoromethylcoumarin O-debenzylase (BFCOD) activity in rainbow trout liver S9 fractions (Oncorhynchus mykiss, UniProt O42563).
T2 sequence (O42563 1-518): T1 sequence (O42563 1-518)
The series can be described thus: BFCOD inhibition in RT-S9 (IC50 shift assay). The settings on record: within the tested concentration range. The protocol:
as §1, §2, §3, §4, §5

The test system of series [6] is CYP1A-like ethoxyresorufin O-deethylase (EROD) activity in rainbow trout liver S9 fractions. The series can be described thus: EROD inhibition in RT-S9 (IC50 shift assay). How it is done: as §1, §2, §3, §4, §5
For another series, the system named is CYP1A-like EROD activity. The series can be described thus: in vitro. The settings on record: both, Christophersen, Bornhoeved, rainbow trout (Oncorhynchus mykiss). The protocol: as §1, §2, §3, §4, §5
The mark [7] stands for this setting: pH 7.8, EROD inhibition in RT-S9, Nominal IC50.
[8] abbreviates: pH 7.8, EROD inhibition in RT-S9, Unbound IC50.
Where [9] appears, read: s9, pH 7.8, BFCOD inhibition in RT-S9, Nominal IC50, Protocol B: 30 min preincubation w/NADPH (2 mM).
Setting [10] is: s9, pH 7.8, BFCOD inhibition in RT-S9, Nominal IC50, Protocol C: 30 min preincubation w/all cofactors (NADPH, UDPGA, PAPS, glutathione).
Setting [11] is: rainbow trout liver S9 fractions (RT-S9).

In the case of `CC(C)c1c(C(=O)Nc2ccccc2)c(-c2ccccc2)c(-c2ccc(F)cc2)n1CC[C@@H](O)C[C@@H](O)CC(=O)O` [Atorvastatin, atorvastatin calcium trihydrate], the LogKOW in series [1] is 6.36 (e).
Take `CN1CCCC(n2nc(Cc3ccc(Cl)cc3)c3ccccc3c2=O)CC1` (stereo not shown) [Azelastine, azelastine hydrochloride]: the inhibition at 10 min in series [2] is more than 50%. In addition, the IC50 at 10 min is 28 ± 2 µM in series [2] (setting [7]) and 3.8 ± 0.5 µM in series [2] (setting [8]). Moreover, the IC50 at 20 min in series [3] (s9, pH 7.8) is more than 100 µM; in series [3] (setting [9]) it was more than 100 µM; in series [3] (setting [10]) it was more than 100 µM. Moreover, in series [3] (s9, pH 7.8), the inhibition at 20 min was not above 50%. For the same compound, in series [4] (setting [11]), the fraction unbound at 4 h, 10 µM was 0.14 ± 0.01. The “Human CYP3A interactions: inhibitor status” value in the series on Human CYP3A (ref Drugbank unless otherwise stated (Cohen et al., 2000; Guo et al., 1997; Niwa et al., 2005)) is given as “Inhibitor (m)”.
For the compound `CCNC(=O)CCC/C=C\C[C@@H]1[C@@H](/C=C/[C@@H](O)CCc2ccccc2)[C@H](O)C[C@@H]1O` [Bimatoprost, bimatoprost], the “BFCOD inhibition in RT-S9 (in words)” value in series [5] is “did not significantly inhibit”. Moreover, in series [1], the LogKOW was 3.2 (e). Besides, the “Human CYP3A interactions: substrate status” value in the series with Human CYP3A is reported as “Substrate”.
As for `Cc1ncsc1CCCl` [Clomethiazole, clomethiazole hydrochloride], the “EROD inhibition in RT-S9 (in words)” value in series [6] (within the tested concentration range) is “did not significantly inhibit”; in series [6] (within the tested concentration range, listed as Chlomethiazole), “no significant EROD inhibition”. Besides, the “BFCOD inhibition in RT-S9 (in words)” value in series [5] is on record as “did not significantly inhibit”. Further, in series [4] (rainbow trout (Oncorhynchus mykiss)), the fraction unbound at 4 h, 10 µM is more than 0.9. For the same compound, the “Human CYP3A interactions: substrate status” value with Human CYP3A is listed as “Substrate”.
Take `Clc1ccc2c(c1)CCc1cccnc1C2=C1CCNCC1` [Desloratadine, desloratadine]: in series [4] (setting [11]), the fraction unbound at 4 h, 10 µM was 0.15 ± 0.03.
As for `CCN(CC)C(=S)SSC(=S)N(CC)CC` [Disulfiram, disulfiram], the fraction unbound at 4 h, 10 µM in series [4] (rainbow trout (Oncorhynchus mykiss), rainbow trout liver S9 fractions (RT-S9)) was more than 0.9; in series [4] (setting [11]) it was 0.91 ± 0.42. In addition, the LogKOW in series [1] is 3.88 (e).
As to `COc1ccc2nc([S@@+]([O-])Cc3ncc(C)c(OC)c3C)[nH]c2c1` [Esomeprazole, esomeprazole magnesium hydrate], the IC50 shift at 10 min was 2.3 ± 0.7 in the series on CYP1A-like EROD activity (s9, pH 7.8, EROD inhibition in RT-S9, IC50 shift (A/B)) and 1.7 with CYP1A-like EROD activity (s9, pH 7.8, EROD inhibition in RT-S9, IC50 shift (A/C)). In series [2], the inhibition at 10 min was more than 50%. The compound also yielded an IC50 at 10 min in series [2] (setting [8]) of 3 ± 0.8 µM. For the same compound, the IC50 at 20 min is more than 100 µM in series [3] (s9, pH 7.8); more than 100 µM in series [3] (setting [9]); more than 100 µM in series [3] (setting [10]). In addition, the inhibition at 20 min in series [3] (s9, pH 7.8) is not above 50%. For the same compound, the IC50 shift at 20 min in series [3] (s9, pH 7.8, BFCOD inhibition in RT-S9, IC50 shift (A/B), IC50 Protocol A / IC50 Protocol B, TDI if ≥1.5) was 1.2 ± 0.2; in series [3] (s9, pH 7.8, BFCOD inhibition in RT-S9, IC50 shift (A/C), IC50 Protocol A / IC50 Protocol C) it was 0.8. For the same compound, the fraction unbound at 4 h, 10 µM in series [4] (setting [11]) was found to be 0.36 ± 0.08. In addition, in the series with Human CYP3A, the “Human CYP3A interactions: substrate status” value is on record as “Substrate”.
Turning to `Cc1ccccc1C(OCCN(C)C)c1ccccc1` (stereo not shown) [Orphenadrine, orphenadrine citrate], the fraction unbound at 4 h, 10 µM in series [4] (setting [11]) came out at 0.27 ± 0.05. Moreover, in series [1], the LogKOW is 3.77 (e).
Turning to `COc1cc2nc(N3CCN(C(=O)c4ccco4)CC3)nc(N)c2cc1OC` [Prazosin, prazosin hydrochloride], in series [6], the “EROD inhibition in RT-S9 (in words)” value is on record as “inhibited selectively only EROD activity”. In series [2], this compound returned an inhibition at 10 min of more than 50%. Also, 21 ± 2 µM corresponded to half-maximal inhibition in series [2] (setting [7]) (IC50 at 10 min). The 50% inhibitory concentration (IC50) at 20 min in series [3] (s9, pH 7.8) was more than 25 µM.
In the case of `OCCOCCN1CCN(C2=Nc3ccccc3Sc3ccccc32)CC1` [Quetiapine, quetiapine hemihumarate], in series [4] (setting [11]), the fraction unbound at 4 h, 10 µM worked out at 0.24 ± 0.06. Besides, the LogKOW in series [1] is 2.81 (e).
On to `CCN1CCCC1CNC(=O)c1cc(S(N)(=O)=O)ccc1OC` (stereo not shown) [Sulpiride, sulpiride], for which the “BFCOD inhibition in RT-S9 (in words)” value in series [5] was “did not significantly inhibit”.
